Measured values taken from the supplement of paper PMC10307832.

Columns and labels:
Assay in all cases: relative viability (nuclei count vs DMSO), 5 days (fraction); higher = more cells survive
IA-LM = tested on: IA-LM
Summary of the method: (§1)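 Relative viability divides the nuclei count in treated wells by that in vehicle wells. Lung cancer cell lines were seeded in 1536-well plates, dosed by pin tool the next day, and fixed and stained after 5 days in one step with final 0.05% Triton X-100, 1% formaldehyde and 1 ug/ml Hoechst. Dosing was a single drug or a fixed anchor-drug dose plus five library-drug doses (not always all listed) in √10 steps, and values are medians of duplicate plates imaged at 4×.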

LC-2-ad = tested on: LC-2-ad
Summary of the method: as §1

Calu-6 = tested on: Calu-6
Summary of the method: as §1

EKVX = tested on: EKVX
Summary of the method: as §1

NCI-H1703 = tested on: NCI-H1703
Summary of the method: as §1

A549 = tested on: A549
Summary of the method: as §1

EBC-1 = tested on: EBC-1
Summary of the method: as §1

NCI-H1299 = tested on: NCI-H1299
Summary of the method: as §1

NCI-H1666 = tested on: NCI-H1666
Summary of the method: as §1

## Nc1cccc2c1CN(C1CCC(=O)NC1=O)C2=O (stereo unspecified) [Lenalidomide] + CS(=O)(=O)CCNCc1ccc(-c2ccc3ncnc(Nc4ccc(OCc5cccc(F)c5)c(Cl)c4)c3c2)o1 [Lapatinib] (partner 2 µM)
IA-LM; first compound 0.253 µM
  relative viability: 0.647
IA-LM; first compound 0.8 µM
  relative viability: 0.557
IA-LM; first compound 2.53 µM
  relative viability: 0.613
IA-LM; first compound 8 µM
  relative viability: 0.532
LC-2-ad; first compound 0.253 µM
  relative viability: 0.941
LC-2-ad; first compound 0.8 µM
  relative viability: 0.96
LC-2-ad; first compound 2.53 µM
  relative viability: 1.05
LC-2-ad; first compound 8 µM
  relative viability: 1
Calu-6; first compound 0.253 µM
  relative viability: 0.971
Calu-6; first compound 0.8 µM
  relative viability: 1.09
Calu-6; first compound 2.53 µM
  relative viability: 1.17
Calu-6; first compound 8 µM
  relative viability: 1.13
EKVX; first compound 0.253 µM
  relative viability: 0.208
EKVX; first compound 0.8 µM
  relative viability: 0.173
EKVX; first compound 2.53 µM
  relative viability: 0.189
EKVX; first compound 8 µM
  relative viability: 0.157
NCI-H1703; first compound 0.253 µM
  relative viability: 1.06
NCI-H1703; first compound 0.8 µM
  relative viability: 1.78
NCI-H1703; first compound 2.53 µM
  relative viability: 1.42
NCI-H1703; first compound 8 µM
  relative viability: 1.24
A549; first compound 0.253 µM
  relative viability: 1.06
A549; first compound 0.8 µM
  relative viability: 1.09
A549; first compound 2.53 µM
  relative viability: 0.972
A549; first compound 8 µM
  relative viability: 1.02
EBC-1; first compound 0.253 µM
  relative viability: 0.211
EBC-1; first compound 0.8 µM
  relative viability: 0.205
EBC-1; first compound 2.53 µM
  relative viability: 0.217
EBC-1; first compound 8 µM
  relative viability: 0.235
NCI-H1299; first compound 0.253 µM
  relative viability: 0.961
NCI-H1299; first compound 0.8 µM
  relative viability: 0.873
NCI-H1299; first compound 2.53 µM
  relative viability: 0.948
NCI-H1299; first compound 8 µM
  relative viability: 1.01
NCI-H1666; first compound 0.253 µM
  relative viability: 0.788
NCI-H1666; first compound 0.8 µM
  relative viability: 0.295
NCI-H1666; first compound 2.53 µM
  relative viability: 0.847
NCI-H1666; first compound 8 µM
  relative viability: 0.513

## Cc1cn(-c2cc(NC(=O)c3ccc(C)c(Nc4nccc(-c5cccnc5)n4)c3)cc(C(F)(F)F)c2)cn1 [Nilotinib] + C[C@]1(O)C[C@@H](c2nc(-c3ccc4ccc(-c5ccccc5)nc4c3)c3c(N)nccn32)C1 [Linsitinib] (partner 1 µM)
IA-LM; first compound 0.001 µM
  relative viability: 0.382
IA-LM; first compound 0.003162 µM
  relative viability: 0.31
IA-LM; first compound 0.01 µM
  relative viability: 0.634
IA-LM; first compound 0.03162 µM
  relative viability: 0.346
IA-LM; first compound 0.1 µM
  relative viability: 0.216
LC-2-ad; first compound 0.001 µM
  relative viability: 0.862
LC-2-ad; first compound 0.003162 µM
  relative viability: 0.985
LC-2-ad; first compound 0.01 µM
  relative viability: 1.02
LC-2-ad; first compound 0.03162 µM
  relative viability: 0.897
LC-2-ad; first compound 0.1 µM
  relative viability: 0.735
Calu-6; first compound 0.001 µM
  relative viability: 0.819
Calu-6; first compound 0.003162 µM
  relative viability: 1.06
Calu-6; first compound 0.01 µM
  relative viability: 1.06
Calu-6; first compound 0.03162 µM
  relative viability: 0.809
Calu-6; first compound 0.1 µM
  relative viability: 0.828
EKVX; first compound 0.001 µM
  relative viability: 0.866
EKVX; first compound 0.003162 µM
  relative viability: 1.26
EKVX; first compound 0.01 µM
  relative viability: 1.62
EKVX; first compound 0.03162 µM
  relative viability: 0.955
EKVX; first compound 0.1 µM
  relative viability: 1.09
NCI-H1703; first compound 0.001 µM
  relative viability: 0.637
NCI-H1703; first compound 0.003162 µM
  relative viability: 0.285
NCI-H1703; first compound 0.01 µM
  relative viability: 0.343
NCI-H1703; first compound 0.03162 µM
  relative viability: 0.218
NCI-H1703; first compound 0.1 µM
  relative viability: 0.136
A549; first compound 0.001 µM
  relative viability: 0.778
A549; first compound 0.003162 µM
  relative viability: 0.582
A549; first compound 0.01 µM
  relative viability: 0.767
A549; first compound 0.03162 µM
  relative viability: 0.535
A549; first compound 0.1 µM
  relative viability: 0.286
EBC-1; first compound 0.001 µM
  relative viability: 0.81
EBC-1; first compound 0.003162 µM
  relative viability: 0.794
EBC-1; first compound 0.01 µM
  relative viability: 1.14
EBC-1; first compound 0.03162 µM
  relative viability: 0.791
EBC-1; first compound 0.1 µM
  relative viability: 0.66
NCI-H1299; first compound 0.001 µM
  relative viability: 0.91
NCI-H1299; first compound 0.003162 µM
  relative viability: 1.1
NCI-H1299; first compound 0.01 µM
  relative viability: 1.28
NCI-H1299; first compound 0.03162 µM
  relative viability: 0.957
NCI-H1299; first compound 0.1 µM
  relative viability: 0.762
NCI-H1666; first compound 0.001 µM
  relative viability: 0.854
NCI-H1666; first compound 0.003162 µM
  relative viability: 0.954
NCI-H1666; first compound 0.01 µM
  relative viability: 0.74
NCI-H1666; first compound 0.03162 µM
  relative viability: 0.911
NCI-H1666; first compound 0.1 µM
  relative viability: 0.945
